# Test results taken from PMC5049785, “Characterization of Novel Antimalarial Compound ACT-451840: Preclinical Assessment of Activity and Dose–Efficacy Modeling” (PLoS Medicine, 2016).
# Key:
# [1] = tested on: P. falciparum clinical isolates (Papua, Indonesia); assay: Ex vivo drug susceptibility, P. falciparum clinical isolates; assay type: cell-based, Plasmodium falciparum; conditions: P. falciparum clinical isolates, n = 27 (closed symbols); read-out: median IC50
# Description: (§1) […]. Thick blood films made from each well were stained with 5% Giemsa solution for 30 min and examined microscopically. The number of schizonts per 200 asexual-stage parasites was determined for each drug concentration and normalized to the control well.
# [2] = tested on: P. falciparum oocysts in Anopheles stephensi; assay: Standard membrane feeding assay, direct mode; assay type: cell-based, Plasmodium falciparum; conditions: compound added at the time of mosquito feeding, concentrations up to 1 μM
# Description: ACT-451840 was tested in the standard membrane feeding assay at TropIQ (Nijmegen, The Netherlands) in two modes, as previously described. In the direct mode, the compound was directly added to a bloodmeal containing mature stage V gametocytes that was fed to Anopheles stephensi mosquitoes. […] Seven days after the bloodmeal, the number of oocysts in the midgut was determined by microscopy for both modes. […] Vehicle control (0.1% DMSO) and positive control (10 μM dihydroartemisinin) were included. Twenty mosquitoes were dissected per sample, and oocyst load was analyzed per mosquito.
# [3] = in vivo
# [4] = Safety pharmacology in rats; assay type: in vivo; conditions: rats dosed up to 1,000 mg/kg
# [5] = tested on: P. falciparum W2 (Vietnam); assay: [3H]-hypoxanthine incorporation assay, W2; assay type: cell-based, Plasmodium falciparum; conditions: read-out: 50% inhibitory concentration (IC50); W2, resistance CQ, SUL, PYR, CYC; mean ± SD
# [6] = tested on: P. vivax clinical isolates (Papua, Indonesia); assay: Ex vivo drug susceptibility, P. vivax clinical isolates; assay type: cell-based, Plasmodium vivax; conditions: P. vivax clinical isolates, n = 34 (open symbols); read-out: median IC50
# Description: as §1
# [7] = tested on: P. falciparum NF54 male gametocytes; assay: P. falciparum dual gamete formation assay, male; assay type: cell-based, Plasmodium falciparum; conditions: 24 h incubation; ± SD; read-out: IC50 male gamete formation (exflagellation centers)
# Description: Mature P. falciparum NF54 gametocytes were cultured at Imperial College London (London, United Kingdom), as previously described. […] Male gamete formation was quantified by computer-aided automated identification and counting of exflagellation centers. Female gamete formation was visualized by live immunofluorescence with a Cy3-conjugated antibody specific for Pfs25—a female gamete expressed surface protein. […] IC50 values were calculated using GraphPad Prism version 6 using the logarithmic versus normalized response (variable slope) function (Graphpad Software, San Diego, US).
# [8] = Chromosome aberration study in vitro
# [9] = General oral toxicity study up to 4 wk, dogs; assay type: in vivo
# [10] = tested on: P. falciparum D6 (Sierra Leone); assay: [3H]-hypoxanthine incorporation assay, D6; assay type: cell-based, Plasmodium falciparum; conditions: read-out: 50% inhibitory concentration (IC50); D6, resistance MFQ; mean ± SD
# [11] = tested on: P. falciparum strain 3D7 (MR4); assay: In vitro parasite reduction ratio (PRR) assay; assay type: cell-based, Plasmodium falciparum
# Description: In vitro PRR testing was conducted at GSK (Tres Cantos, Madrid, Spain) as previously described. The assay used the limiting dilution technique to quantify the number of parasites that remained viable after drug treatment. […] Parasites were treated for 120 h. Drug in culture medium was renewed daily over the entire treatment period. […] To quantify the number of viable parasites after treatment, 3-fold serial dilutions were used with the above mentioned samples after removing the drug. Four independent serial dilutions were performed with each sample to correct experimental variations. The number of viable parasites was determined after 21 and 28 d by counting the number of wells with growth using [^3H]-hypoxanthine incorporation. The number of viable parasites was back-calculated by using the formula X^n-1 where n is the number of wells able to render growth and X the dilution factor (when n = 0, number of viable parasites is estimated as zero). […] The parasite clearance time to kill 99.9% of the initial population was determined using a regression calculated on the log-linear phase of the parasite reduction, taking into account the lag phase.
# P. berghei = conditions: ± coefficient of variation
# Description: A single compartment PK model with saturable absorption was obtained using naïve pooling to fit simultaneously the observed blood concentration time data from the PK studies done at a dose of 10, 100, and 300 mg/kg, as described above. Using this model, blood concentration time profiles were predicted for all dosing regimens used in the mouse antimalarial efficacy studies. Cmax, AUC, and time above a threshold concentration were subsequently calculated using non-compartmental analysis. PD modeling was done using an Emax model using Cmax, AUC, or time above a threshold concentration versus survival or antimalarial activity. All modeling and PK analyses were done using Phoenix Winonlin 6.3 (Cetara, Princeton, US).
# [12] = tested on: P. falciparum PfNF54^0230/N3; assay: In vivo efficacy, P. falciparum mouse model (GSK)
# Description: In vivo efficacy against P. falciparum was conducted at GSK according to the standard assay previously described. Female NODscidIL2Rγnull mice were engrafted with human erythrocytes and infected with the isolate P. falciparum PfNF54^0230/N3, a strain developed at GSK for growth in engrafted mice. […] Blood samples were collected on Days 3, 4, 5, 6, and 7 (n = 3 per time point) for parasitemia measurement by flow cytometry. Similarly, blood samples were collected at 0.5, 1, 2, 4, 6, 8, 12, 24, and 48 h after a single administration of 4.7 mg/kg of ACT-451840 to a parallel group of three P. falciparum-infected mice for PK parameters determination. Results are expressed exclusively as antimalarial activity in the P. falciparum murine model.
# [13] = tested on: P. falciparum NF54 strain; assay: [3H]-hypoxanthine incorporation assay, NF54; assay type: cell-based, Plasmodium falciparum; conditions: mean ± SD
# Description: In vitro time-, stage-, and concentration-dependent effects were assessed using pyrimethamine as a stage-specific and slow-acting control, as described elsewhere.
structure (smiles),measurement,setting,value
CC(=O)N1CCN(c2ccc(CN(C(=O)/C=C/c3ccc(C(C)(C)C)cc3)[C@@H](Cc3ccccc3)C(=O)N3CCN(Cc4ccc(C#N)cc4)CC3)cc2)CC1 [ACT-451840],IC50,[1],2500 pM
same,activity against P. falciparum oocysts,[2],did not show any activity
same,"genotoxicity, micronucleus test",[3],not genotoxic
same,effects on central nervous and respiratory parameters,[4],no effects
same,IC50,[5],200 ± 100 pM
same,IC50,[6],3000 pM
same,IC50,[7],5890 pM
same,"genotoxicity, chromosome aberration study",[8],not genotoxic
same,no-observed-adverse-effect level,[9]; oral,100 mg/kg/day
same,local gastrointestinal toxicity,"[9]; oral up to 1,000 mg/kg/day",no evidence of local gastrointestinal toxicity
same,IC50,[10],500 ± 100 pM
same,lag phase in the killing curve,[11]; 10 x IC50,without lag phase
same,parasite clearance time to kill 99.9% of the initial population,[11]; 10 x IC50,28 h
same,log PRR,"[11]; 10 x IC50, decrease in viable parasites over 48 h",4.4
same,PRR,[11]; asexual blood stage forms,> 4 log per parasite cycle
same,"Antimalarial activity EX50, X = AUC",P. berghei; Emax model,"8,100 (ng*h/mL) ± 35%"
same,"Antimalarial activity EX50, X = Cmax",P. berghei; Emax model,930 (ng/mL) ± 36%
same,"Antimalarial activity EX50, X = time above threshold",P. berghei; Emax model,"0.14 (h) ± 3,000%"
same,"Survival E0, model versus AUC",P. berghei; Emax model,5.1 (day) ± 17%
same,"Survival E0, model versus Cmax",P. berghei; Emax model,4 (day) ± 54%
same,"Survival E0, model versus time above threshold",P. berghei; Emax model,5.9 (day) ± 12%
same,"Survival EX50, X = AUC",P. berghei; Emax model,"170,000 (ng*h/mL) ± 16%"
same,"Survival EX50, X = Cmax",P. berghei; Emax model,"15,000 (ng/mL) ± 170%"
same,"Survival EX50, X = time above threshold",P. berghei; Emax model,150 (h) ± 52%
same,"Antimalarial activity Emax, model versus AUC",P. berghei,110 (%) ± 8.3%
same,"Antimalarial activity Emax, model versus Cmax",P. berghei,130 (%) ± 11%
same,"Antimalarial activity Emax, model versus time above threshold",P. berghei,100 (%) ± 38%
same,"Survival Emax, model versus AUC",P. berghei,35 (day) ± 35%
same,"Survival Emax, model versus Cmax",P. berghei,62 (day) ± 120%
same,"Survival Emax, model versus time above threshold",P. berghei,70 (day) ± 71%
same,total AUC in blood corresponding to the ED90,"[12]; P. falciparum mouse model, quadruple-dose regimen […], linearly extrapolated from single dose of 4.7 mg/kg",227 ng·h/mL
same,effective dose resulting in 90% antimalarial activity (ED90),"[12]; oral quadruple-dose regimen, once a day",3.7 mg/kg
same,IC90,"[13]; NF54, n ≥ 3",600 pM
same,IC99,"[13]; NF54, n ≥ 3",1.2 ± 0.0 nM
same,IC50,"[13]; read-out: 50% inhibitory concentration (IC50), NF54, no resistance, n = 3",400 pM
